Reference: US20250179032A1, “HETEROCYCLIC INHIBITORS OF GLUT9 FOR TREATMENT OF DISEASE” (HORIZON THERAPEUTICS IRELAND DAC, priority 2022, published 2025)

Each compound was assayed against T1, H. sapiens SLC2A9 variant 2 (GLUT9B) (Homo sapiens, UniProt Q9NRM0) (assay: GLUT9 functional assay: uric acid uptake in HEK293T cells, allantoin formation by MS/MS as proxy of GLUT9B inhibition). Conditions: 60 minute assay; HEK293T cells stably expressing GLUT9B and transiently A. oryzae uricase; uric acid 0.3 mM, 37° C.; read-out: 60 min IC50.
T1 sequence (Q9NRM0 1-511 isoform Q9NRM0-2): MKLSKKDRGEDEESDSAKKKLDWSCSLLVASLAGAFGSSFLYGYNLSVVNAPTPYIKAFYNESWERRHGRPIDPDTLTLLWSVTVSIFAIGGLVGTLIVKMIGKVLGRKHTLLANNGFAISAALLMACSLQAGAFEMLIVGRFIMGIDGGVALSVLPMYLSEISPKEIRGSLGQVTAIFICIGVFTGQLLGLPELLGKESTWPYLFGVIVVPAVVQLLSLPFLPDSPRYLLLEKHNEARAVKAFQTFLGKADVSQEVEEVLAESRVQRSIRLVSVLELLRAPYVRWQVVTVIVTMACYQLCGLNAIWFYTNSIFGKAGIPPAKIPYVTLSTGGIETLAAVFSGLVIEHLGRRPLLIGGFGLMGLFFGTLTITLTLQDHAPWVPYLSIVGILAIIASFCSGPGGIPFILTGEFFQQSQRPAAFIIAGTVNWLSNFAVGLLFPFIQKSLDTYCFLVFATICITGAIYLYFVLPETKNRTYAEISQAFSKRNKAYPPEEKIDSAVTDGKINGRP
Type: cell-based
In short: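 Inhibition of GLUT9B-mediated urate uptake read as reduced allantoin formation, measured by MS/MS against allantoin standards in HEK293T matrix with log-logistic fitting. Stable GLUT9B HEK293T cells carrying transfected A. oryzae uricase were incubated 15 or 60 min at 37° C with uric acid at Km (0.3 mM), pH 7.4 gluconate buffer.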
`COCCCc1cnc(-c2ccc3c(c2)OCO3)c(N2CCC3(CC(C(=O)O)C3)C2)c1` (centres unmarked) [Compound 247, 6-(2-(benzo[d][1,3]dioxol-5-yl)-5-(3-methoxypropyl)pyridin-3-yl)-6-azaspiro[3.4]octane-2-carboxylic acid] showed an IC50 of 500 to 2000 nM. Work on `COCCCc1cnc(-c2ccc3c(c2)OCO3)c(N2CC3(CC(C(=O)O)CO3)C2)c1` (centres unmarked) [Compound 249, 2-(2-(benzo[d][1,3]dioxol-5-yl)-5-(3-methoxypropyl)pyridin-3-yl)-5-oxa-2-azaspiro[3.4]octane-7-carboxylic acid] yielded an IC50 greater than 2000 nM. Work on `COCCCc1cnc(-c2ccc3c(c2)OCO3)c(N2CC3(CC(C(=O)O)C3)C2)c1` [Compound 250, 2-(2-(benzo[d][1,3]dioxol-5-yl)-5-(3-methoxypropyl)pyridin-3-yl)-2-azaspiro[3.3]heptane-6-carboxylic acid] yielded an IC50 greater than 2000 nM. With `COCCCc1cnc(-c2ccc3c(c2)OCO3)c(N2CC(C(=O)O)C2)c1` [Compound 251, 1-(2-(benzo[d][1,3]dioxol-5-yl)-5-(3-methoxypropyl)pyridin-3-yl)azetidine-3-carboxylic acid] the IC50 was greater than 2000 nM. Work on `COCCCc1cnc(-c2ccc3c(c2)OCO3)c(N2CC(OC)(C(=O)O)C2)c1` [Compound 252, 1-(2-(benzo[d][1,3]dioxol-5-yl)-5-(3-methoxypropyl)pyridin-3-yl)-3-methoxyazetidine-3-carboxylic acid] yielded an IC50 greater than 2000 nM. With `COCCCc1cnc(-c2ccc3occ(Cl)c3c2)c(N2CCC(C(=O)O)CC2)n1` [Compound 253, 1-(3-(3-chlorobenzofuran-5-yl)-6-(3-methoxypropyl)pyrazin-2-yl)piperidine-4-carboxylic acid] the IC50 was less than 500 nM. With `COCCCc1cnc(-c2ccc(SC)cc2)c(N2CCC(C(=O)O)CC2)n1` [Compound 254, 1-(6-(3-methoxypropyl)-3-(4-(methylthio)phenyl)pyrazin-2-yl)piperidine-4-carboxylic acid] the IC50 was less than 500 nM. With `COCCCc1cnc(-c2ccc(F)c(F)c2)c(N2CCC(C(=O)O)CC2)n1` [Compound 255, 1-(3-(3,4-difluorophenyl)-6-(3-methoxypropyl)pyrazin-2-yl)piperidine-4-carboxylic acid] the IC50 was 500 to 2000 nM.
